One test relates to Candida albicans. Nature of the test: Antimicrobial activity against Candida albicans UBC2. The test is classed as functional, organism-based.
The subject of another test is Salmonella typhimurium. Nature of the test: Antimicrobial activity against sSalmonella Typhimurium UBC1. The class given is functional, organism-based. The note with it: Salmonella enterica subsp. enterica serovar Typhimurium.
The test system of another test is Bacillus subtilis. The test can be described thus: Antimicrobial activity against Bacillus subtilis CECT39. The test is classed as functional.
A further test deals with Escherichia coli. Nature of the test: Antimicrobial activity against Escherichia coli CECT99. The class given is functional, organism-based.
For another test, the system named is Staphylococcus aureus. Nature of the test: Antimicrobial activity against Staphylococcus aureus ATCC 6538. The test is classed as functional.

SMILES strings stand for the structures. Values after ≈ are worked out from the molar mass of the structure shown. Active and inactive are the calls of the source.

As for `COC(=O)[C@@]1(C)C[C@@H]2[C@](C)(CC1=O)C[C@H](O)[C@]1(C)C3=CC=C4C(=CC(=O)C(O)=C4C)[C@]3(C)CC[C@@]21C`, the outcome with Candida albicans, in the test with Salmonella typhimurium and with Escherichia coli was inactive. Moreover, the MIC (usually the smallest concentration in the dilution series that meets the test's criterion for growth inhibition) was found to be 1.25 µg/mL (≈ 2.53 µM) in the test with Bacillus subtilis and 5 µg/mL (≈ 10.1 µM) against Staphylococcus aureus.

For the origin of these results see ChEMBL document CHEMBL1141847, “A new antibiotic nortriterpene quinone methide from Maytenus catingarum” (1999).
